Series [1] in a line: Stability of SH-11037 in 0.1 M phosphate buffer (pH 7.4). In kind it is physicochemical. How it is done: (§1) SH-11037 (1 μM) was incubated in triplicate in 0.1 M phosphate buffer (pH 7.4) or in mouse, dog, and human plasma to investigate its stability. SH-11037 (40 μM) in 50 vol% aqueous CH3CN was mixed with 0.1 M phosphate buffer (pH 7.4) or plasma diluted 3-fold with 0.1 M phosphate buffer (pH 7.4) to a final volume of 160 μL and a final concentration of 1 μM. The resulting solutions were then incubated at 37 °C in a shaking water bath. The incubations were terminated at selected times by adding 160 µL of ice-cold CH3CN containing glipizide (500 ng/mL) as the internal standard (IS). The resulting mixture was vortexed, sonicated, and centrifuged at 3000× g for 20 min. Aliquots of the supernatant were subjected to LC-MS/MS analysis described below in Section 2.6.2.
(§2) The LC-MS/MS system consisted of Agilent 1290 Infinity HPLC system and Agilent 6530 Accurate-Mass Quadrupole Time-of-Flight (Q-TOF) mass spectrometer equipped with dual AJS ESI ion source (Agilent Technologies Korea, Seoul, Korea). Chromatographic separation was performed on an Agilent Eclipse Plus C18 column (2.1 × 100 mm, 3.5 μm) with a Phenomenex Security Guard C18 guard column (4 × 20 mm) maintained at 40 °C. The mobile phase consisted of 0.1% formic acid in deionized water (A) and 0.1% formic acid in CH3CN (B): 0~2 min 5% B, 2~7 min to 95% B, and 7~10 min 95% B. Total run time including a 5 min equilibration time was 15 min. […]

Series [2] is described as follows: Stability of SH-11037 in mouse plasma. In kind it is in vitro ADME. The conditions noted are these: ICR, pH 7.4, SH-11037 1 µM, 37 °C, read-out: half-life (t1/2) of hydrolysis to SH-11008. How it is done:
as §1, §2

The nature of series [3]: Stability of SH-11037 in dog plasma. In kind it is in vitro ADME. The conditions noted are these: beagle, pH 7.4, SH-11037 1 µM, 37 °C, read-out: half-life (t1/2) of hydrolysis to SH-11008. As to the method:
as §1, §2

On to `COc1ccc(CC2COc3cc(OC)c(OC)c(OC)c3C2=O)cc1OC(=O)[C@H](Cc1ccccc1)NC(=O)OC(C)(C)C` (stereo partly shown) [SH-11037], for which the SH-11037 remaining in series [1] (1 µM, 0.1 M phosphate buffer pH 7.4, 1 h incubation at 37 °C) is listed as ~100%. In addition, in series [1] (SH-11037 1 µM, pH 7.4 buffer, 1 h at 37 °C), the “SH-11008 formation in buffer” value was “not detected”. Also, the half-life at 1 µM stood at 0.018 min in series [2] and 69.1 min in series [3].

Source of the values: PMC9697349, “Mouse Pharmacokinetics and In Vitro Metabolism of SH-11037 and SH-11008, Synthetic Homoisoflavonoids for Retinal Neovascularization” (Pharmaceutics, 2022).
